# Data reported in US11713338B2, “Cyclic peptides multimers targeting α-4-β-7 integrin” (priority 2016, dated 2023).
# Assays:
# [1] = target: T1, recombinant integrin α4β1 (Homo sapiens, UniProt P05556+P13612); assay: Integrin α4β1—VCAM-1 competition ELISA; assay type: binding; settings: for IC50: read-out: ELISA a4b1 Assay IC50
# T1 construct: purchased R&D Systems 5397-A3-050
# Experimental: Integrin α4β1—VCAM-1 Competition ELISA
# The plate was incubated at 4° C. overnight. […] The plate was then incubated for 1 hour at room temperature. The plate was washed three times with wash buffer (50 mM Tris, 100 mM NaCl, 1 mM MnCl2, 0.05% Tween). To each well, 50 μl of compound diluted in assay buffer was added by transfer from a compound serial dilution plate. […] The plate was incubated at room temperature with shaking (300 rpm) for 2 hours to reach binding equilibrium. Then the plate was washed three times in wash buffer and 100 μl anti-human IgG Fc specific-HRP (Abcam, Ab97225) diluted at 1:2000 in assay buffer was added to each well. The plate was incubated at room temperature for 1 hour under agitation.
# [2] = target: T2, recombinant integrin α4β7 (Homo sapiens, UniProt P13612+P26010, DEL724-798); assay: Integrin α4β7—MAdCAM-1 ELISA competition assay; assay type: binding; settings: for ELISA Assay Ratio b1/b7: ratio of a4b1 to a4b7 ELISA IC50; for IC50: read-out: ELISA a4b7 Assay IC50
# T2 construct: purchased R&D Systems 5397-A3-050
# T2 sequence (P13612 34-970 limits assumed): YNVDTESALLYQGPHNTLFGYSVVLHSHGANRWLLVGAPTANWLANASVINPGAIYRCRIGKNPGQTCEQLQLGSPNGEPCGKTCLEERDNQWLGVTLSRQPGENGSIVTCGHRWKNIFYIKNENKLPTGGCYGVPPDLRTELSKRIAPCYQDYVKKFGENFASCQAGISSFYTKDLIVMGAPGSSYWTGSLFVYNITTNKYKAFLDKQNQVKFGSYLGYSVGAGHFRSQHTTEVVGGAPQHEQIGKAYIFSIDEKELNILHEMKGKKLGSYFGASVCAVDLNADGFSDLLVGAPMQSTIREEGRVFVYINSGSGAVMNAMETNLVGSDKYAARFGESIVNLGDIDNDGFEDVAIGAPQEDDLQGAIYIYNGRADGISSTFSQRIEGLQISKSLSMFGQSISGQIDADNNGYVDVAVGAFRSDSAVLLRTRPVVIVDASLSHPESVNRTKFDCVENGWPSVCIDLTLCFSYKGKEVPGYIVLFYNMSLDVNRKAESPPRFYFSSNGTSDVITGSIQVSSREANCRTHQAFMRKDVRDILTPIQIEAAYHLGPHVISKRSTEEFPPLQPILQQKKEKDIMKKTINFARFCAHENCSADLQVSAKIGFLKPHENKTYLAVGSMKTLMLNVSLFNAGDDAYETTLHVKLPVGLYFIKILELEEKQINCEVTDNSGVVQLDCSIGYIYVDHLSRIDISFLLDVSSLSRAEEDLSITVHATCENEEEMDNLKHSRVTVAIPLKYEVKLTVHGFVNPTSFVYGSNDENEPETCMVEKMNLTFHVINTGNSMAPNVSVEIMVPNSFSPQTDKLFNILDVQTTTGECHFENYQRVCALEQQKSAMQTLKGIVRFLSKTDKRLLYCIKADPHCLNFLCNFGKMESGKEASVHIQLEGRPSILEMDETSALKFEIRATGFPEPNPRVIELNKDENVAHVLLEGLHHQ
# T2 sequence (P26010 20-723 limits assumed): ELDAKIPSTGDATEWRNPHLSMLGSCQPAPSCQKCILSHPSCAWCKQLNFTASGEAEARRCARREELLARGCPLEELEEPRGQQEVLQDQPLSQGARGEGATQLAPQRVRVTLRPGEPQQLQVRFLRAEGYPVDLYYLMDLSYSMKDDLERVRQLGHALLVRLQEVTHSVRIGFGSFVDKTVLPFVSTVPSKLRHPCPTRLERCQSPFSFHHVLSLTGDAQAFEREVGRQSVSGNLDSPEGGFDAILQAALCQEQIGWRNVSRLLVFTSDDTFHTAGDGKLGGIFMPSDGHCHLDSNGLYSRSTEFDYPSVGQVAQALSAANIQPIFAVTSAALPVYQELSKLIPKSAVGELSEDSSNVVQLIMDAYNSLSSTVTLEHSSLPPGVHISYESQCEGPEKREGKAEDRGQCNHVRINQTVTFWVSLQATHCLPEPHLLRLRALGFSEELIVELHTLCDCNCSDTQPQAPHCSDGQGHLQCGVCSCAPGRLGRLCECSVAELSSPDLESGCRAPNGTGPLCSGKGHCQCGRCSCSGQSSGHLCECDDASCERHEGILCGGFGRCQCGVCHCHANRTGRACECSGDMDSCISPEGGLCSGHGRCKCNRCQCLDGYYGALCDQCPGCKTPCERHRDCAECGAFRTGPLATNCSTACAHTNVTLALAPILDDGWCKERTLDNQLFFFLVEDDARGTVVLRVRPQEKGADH
# Experimental: Integrin α4β7—MAdCAM-1 ELISA Competition Assay
# The plate was incubated at 40C overnight. […] The plate was then incubated for 1 hour at room temperature. The plate was washed three times with wash buffer (50 mM Tris, 100 mM NaCl, 1 mM MnCl2, 0.05% Tween). To each well, 50 μl of compound diluted in assay buffer was added by transfer from a compound serial dilution plate. […] The plate was incubated at room temperature with shaking (300 rpm) for 2 hours to reach binding equilibrium. […] The plate was incubated at room temperature for 1 hour under agitation.
# T1 sequence (P05556 21-728 limits assumed, one chain of several): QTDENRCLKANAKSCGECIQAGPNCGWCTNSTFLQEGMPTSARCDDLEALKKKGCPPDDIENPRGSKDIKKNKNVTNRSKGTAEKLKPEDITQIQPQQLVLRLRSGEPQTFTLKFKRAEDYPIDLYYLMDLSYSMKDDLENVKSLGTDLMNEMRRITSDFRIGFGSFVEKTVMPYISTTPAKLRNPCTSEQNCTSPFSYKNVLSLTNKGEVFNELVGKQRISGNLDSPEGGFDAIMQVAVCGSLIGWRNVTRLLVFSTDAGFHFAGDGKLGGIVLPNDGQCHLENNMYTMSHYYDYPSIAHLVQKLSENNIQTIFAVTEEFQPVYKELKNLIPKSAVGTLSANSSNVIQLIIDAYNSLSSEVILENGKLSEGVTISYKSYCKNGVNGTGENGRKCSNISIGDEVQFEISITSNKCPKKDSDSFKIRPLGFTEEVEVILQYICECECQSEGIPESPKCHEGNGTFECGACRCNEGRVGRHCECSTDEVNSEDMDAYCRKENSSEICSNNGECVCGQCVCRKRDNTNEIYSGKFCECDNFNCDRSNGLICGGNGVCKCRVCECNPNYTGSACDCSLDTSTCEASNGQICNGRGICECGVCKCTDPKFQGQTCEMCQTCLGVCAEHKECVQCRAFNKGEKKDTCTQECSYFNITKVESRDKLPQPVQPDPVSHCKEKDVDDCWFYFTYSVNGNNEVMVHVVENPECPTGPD
SMILES,IC50 [1],ELISA Assay Ratio b1/b7 [2],IC50 [2],"ELISA Assay Ratio β1/β7 ([1]; ratio of ELISA IC50s, α4β1 over α4β7)"
CO[C@H](C)[C@@H]1NC(=O)[C@H](CC(=O)O)NC(=O)[C@H](CC(C)C)NC(=O)[C@H](Cc2ccccc2)NC(=O)[C@@H]2CCCN2[C@H](C(=O)NC(C)(C)C)[C@H](C)NC1=O [Compound 40],119 nM,1.9,63 nM,
CC(C)C[C@@H]1NC(=O)[C@@H]2C[C@@H](O)CN2C(=O)[C@H](Cc2ccc(O)cc2)NC(=O)[C@@H]2CCCN2[C@H](C(=O)NC(C)(C)C)[C@H](C)NC(=O)[C@H]([C@@H](C)O)NC(=O)[C@H](CC(=O)O)NC1=O [Compound 139],73 nM,0.7,100 nM,
C=CCOc1ccc(C[C@@H]2NC(=O)[C@@H]3CCCN3[C@H](C(=O)NC(C)(C)C)[C@H](C)NC(=O)[C@H]([C@@H](C)O)NC(=O)[C@H](CC(=O)O)NC(=O)[C@H](CC(C)C)NC(=O)CNC2=O)cc1 [Compound 163],1390 nM,11.0,126 nM,
CC(C)C[C@@H]1NC(=O)CN(C)C(=O)[C@H](Cc2ccc(I)cc2)NC(=O)[C@@H]2CCCN2[C@H](C(=O)NC(C)(C)C)[C@H](C)NC(=O)[C@H]([C@@H](C)O)NC(=O)[C@H](CC(=O)O)NC1=O [Compound 107],2390 nM,16.0,150 nM,
CC(C)C[C@@H]1NC(=O)c2cc(cc(-c3ccncc3)c2)CNC(=O)[C@@H]2CCCN2[C@H](C(=O)NC(C)(C)C)[C@H](C)NC(=O)[C@H]([C@@H](C)O)NC(=O)[C@H](CC(=O)O)NC1=O [Compound 362],238 nM,5.6,43 nM,
CC(C)C[C@@H]1NC(=O)CN(C)C(=O)[C@H](Cc2csc(-c3ccccn3)n2)NC(=O)[C@@H]2CCCN2[C@H](C(=O)NC(C)(C)C)[C@H](C)NC(=O)[C@H]([C@@H](C)O)NC(=O)[C@H](CC(=O)O)NC1=O [Compound 179],2660 nM,15.2,,
CC[C@H](C)[C@@H]1NC(=O)[C@H](CC(=O)O)NC(=O)[C@H](CC(C)C)NC(=O)[C@@H](CCCCN)N(C)C(=O)[C@H](Cc2ccc(O)cc2)NC(=O)[C@@H]2CCCN2[C@H](C(=O)NC(C)(C)C)[C@H](C)NC1=O [Compound 154],2660 nM,22.8,117 nM,
CC(C)C[C@@H]1NC(=O)[C@H](Cc2cccc3ccccc23)NC(=O)[C@@H]2CCCN2[C@H](C(=O)NC(C)(C)C)[C@H](C)NC(=O)[C@H]([C@@H](C)O)NC(=O)[C@H](CC(=O)O)NC1=O [Compound 9],106 nM,1.7,61 nM,
CC(C)C[C@@H]1NC(=O)[C@H](Cc2ccc3ccccc3c2)NC(=O)[C@@H]2CCCN2[C@H](C(=O)NC(C)(C)C)[C@H](C)NC(=O)[C@H]([C@@H](C)O)NC(=O)[C@H](CC(=O)O)NC1=O [Compound 10],70 nM,1.3,52 nM,
CC(C)C[C@@H]1NC(=O)C[C@H](CCCCN)NC(=O)[C@H](CC2CCCCC2)NC(=O)[C@@H]2CCCN2[C@H](C(=O)NC(C)(C)C)[C@H](C)NC(=O)[C@H]([C@@H](C)O)NC(=O)[C@H](CC(=O)O)NC1=O [Compound 210],1150 nM,16.0,72 nM,
C=CCOc1ccc(C[C@@H]2NC(=O)[C@@H]3CCCN3[C@H](C(=O)NC(C)(C)C)[C@H](C)NC(=O)[C@H]([C@@H](C)O)NC(=O)[C@H](CC(=O)O)NC(=O)[C@H](CC(C)C)NC(=O)[C@@H](C(C)C)NC2=O)cc1 [Compound 166],1380 nM,7.7,179 nM,
CCO[C@H](C)[C@@H]1NC(=O)[C@H](CC(=O)O)NC(=O)[C@H](CC(C)C)NC(=O)[C@H](Cc2ccccc2)NC(=O)[C@@H]2CCCN2[C@H](C(=O)NC(C)(C)C)[C@H](C)NC1=O [Compound 41],106 nM,,,
CC(C)C[C@@H]1NC(=O)[C@H]2CCCCN2C(=O)[C@H](Cc2ccc(-c3ccccc3)cc2)NC(=O)[C@@H]2CCCN2[C@H](C(=O)NC(C)(C)C)[C@H](C)NC(=O)[C@H]([C@@H](C)O)NC(=O)[C@H](CC(=O)O)NC1=O [Compound 138],118 nM,5.0,24 nM,
CC(C)C[C@@H]1NC(=O)C[C@H](CCCCN)NC(=O)[C@](C)(Cc2ccccc2)NC(=O)[C@@H]2CCCN2[C@H](C(=O)NC(C)(C)C)[C@H](C)NC(=O)[C@H]([C@@H](C)O)NC(=O)[C@H](CC(=O)O)NC1=O [Compound 263],2350 nM,23.1,102 nM,
CC(C)C[C@@H]1NC(=O)[C@@H]2C[C@@H](OCc3ccccc3)CN2C(=O)[C@@H]2CCCN2[C@H](C(=O)NC(C)(C)C)[C@H](C)NC(=O)[C@H]([C@@H](C)O)NC(=O)[C@H](CC(=O)O)NC1=O [Compound 57],148 nM,2.5,59 nM,
CC(C)C[C@@H]1NC(=O)[C@H](Cc2c[nH]cn2)NC(=O)[C@@H]2CCCN2[C@H](C(=O)NC(C)(C)C)[C@@H](CSc2ccccc2)NC(=O)[C@H](C(C)C)NC(=O)[C@H](CC(=O)O)NC1=O [Compound 2],185 nM,1.697,,
CC(C)C[C@@H]1NC(=O)[C@H]2CCCCN2C(=O)[C@H](Cc2cccc3ccccc23)NC(=O)[C@@H]2CCCN2[C@H](C(=O)NC(C)(C)C)[C@H](C)NC(=O)[C@H]([C@@H](C)O)NC(=O)[C@H](CC(=O)O)NC1=O [Compound 143],68 nM,2.1,33 nM,
CC(C)C[C@@H]1NC(=O)[C@H]2CCCCN2C(=O)[C@H](Cc2ccc(O)cc2)N(C)C(=O)[C@@H]2CCCN2[C@H](C(=O)NC(C)(C)C)[C@H](C)NC(=O)[C@H]([C@@H](C)O)NC(=O)[C@H](CC(=O)O)NC1=O [Compound 148],105 nM,,,
CC(C)C[C@@H]1NC(=O)[C@@H]2CCN2C(=O)C[C@H](CCCCN)NC(=O)[C@@H]2CCCN2[C@H](C(=O)NC(C)(C)C)[C@H](C)NC(=O)[C@H]([C@@H](C)O)NC(=O)[C@H](CC(=O)O)NC1=O [Compound 319],309 nM,,,
CC(C)C[C@@H]1NC(=O)[C@H](Cc2cccnc2)NC(=O)[C@@H]2C[C@@H](O)CN2[C@H](C(=O)NC(C)(C)C)[C@H](C)NC(=O)[C@H]([C@@H](C)O)NC(=O)[C@H](CC(=O)O)NC1=O [Compound 44],188 nM,,,
CC(C)C[C@@H]1NC(=O)C[C@H](CCCCN)N(C)C(=O)[C@H](CCCCNC(=O)c2cc(C(=O)O)cc(C(=O)NCCCC[C@@H]3NC(=O)[C@@H]4CCCN4[C@H](C(=O)NC(C)(C)C)[C@H](C)NC(=O)[C@H]([C@@H](C)O)NC(=O)[C@H](CC(=O)O)NC(=O)[C@H](CC(C)C)NC(=O)C[C@H](CCCCN)N(C)C3=O)c2)NC(=O)[C@@H]2CCCN2[C@H](C(=O)NC(C)(C)C)[C@H](C)NC(=O)[C@H]([C@@H](C)O)NC(=O)[C@H](CC(=O)O)NC1=O [Compound 537],,,,0.4
CC(C)C[C@@H]1NC(=O)C[C@H](CCCCN)NC(=O)[C@@H](CCCNC(=N)N)NC(=O)[C@@H]2CCCN2[C@H](C(=O)NC(C)(C)C)[C@H](C)NC(=O)[C@H]([C@@H](C)O)NC(=O)[C@H](CC(=O)O)NC1=O [Compound 217],1090 nM,,,
